From article PMC4359373, “Mechanistic insight into the conserved allosteric regulation of periplasmic proteolysis by the signaling molecule cyclic-di-GMP” (eLife, 2014) come the findings set out here.

“And” between values parts separate entries of the source, which are not always exact repeats. Identical values can stand only once.

For test [1], the target named is T1, LapD (LapD-sfGFP, full-length), with LapG (Pseudomonas fluorescens, UniProt Q3KK31).
T1 construct: full-length transmembrane LapD with C-terminal TEV site-sfGFP-His6, E. coli, detergent-solubilized (LMNG/CHAPS); LapG without signal peptide carrying para-azidophenylalanine at V205, sfGFP cut off; with Periplasmic cysteine protease LapG
T1 sequence (Q3KK31 1-648): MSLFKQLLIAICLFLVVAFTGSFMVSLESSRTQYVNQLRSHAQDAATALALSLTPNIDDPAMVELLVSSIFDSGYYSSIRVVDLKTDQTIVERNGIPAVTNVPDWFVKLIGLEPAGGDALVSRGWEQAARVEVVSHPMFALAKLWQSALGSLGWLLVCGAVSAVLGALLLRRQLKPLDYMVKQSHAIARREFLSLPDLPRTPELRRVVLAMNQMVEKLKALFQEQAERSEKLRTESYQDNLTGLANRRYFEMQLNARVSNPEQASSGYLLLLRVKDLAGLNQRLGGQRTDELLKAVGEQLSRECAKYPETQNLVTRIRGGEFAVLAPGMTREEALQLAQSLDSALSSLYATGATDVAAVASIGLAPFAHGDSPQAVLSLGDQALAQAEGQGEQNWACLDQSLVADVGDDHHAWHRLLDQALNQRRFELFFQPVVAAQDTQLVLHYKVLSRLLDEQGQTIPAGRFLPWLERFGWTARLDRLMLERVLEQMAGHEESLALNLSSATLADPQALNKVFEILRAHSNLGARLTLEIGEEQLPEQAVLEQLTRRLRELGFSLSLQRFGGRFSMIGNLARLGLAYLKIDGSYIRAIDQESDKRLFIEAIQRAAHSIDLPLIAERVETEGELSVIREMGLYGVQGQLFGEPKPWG
T1 sequence (Q3KK32 50-251 partner): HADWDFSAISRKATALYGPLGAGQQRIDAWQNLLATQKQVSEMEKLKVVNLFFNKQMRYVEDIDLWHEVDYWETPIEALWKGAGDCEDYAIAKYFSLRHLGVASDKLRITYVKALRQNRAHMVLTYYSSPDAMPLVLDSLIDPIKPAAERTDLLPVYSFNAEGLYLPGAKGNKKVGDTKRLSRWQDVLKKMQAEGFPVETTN
Briefly: UV cross-linking of LapG-V205pAzF to LapD-sfGFP, in-gel fluorescence. Type of test: binding. Conditions: 2 μM LapD-sfGFP, 1 μM LapG, 2.5 mM CaCl2, pH 7.5, room temperature; detergent-solubilized; concentration range of sharp transition, not an EC50.

For test [2], the target named is full-length P. fluorescens LapD fused C-terminally to superfolder GFP (LapD-sfGFP), wild type (P. fluorescens) (UniProt Q3KK31). Briefly: cross-linking.

As for `Nc1nc2c(ncn2[C@@H]2O[C@@H]3COP(=O)(O)O[C@H]4[C@@H](O)[C@H](n5cnc6c(=O)[nH]c(N)nc65)O[C@@H]4COP(=O)(O)O[C@H]3[C@H]2O)c(=O)[nH]1` [c-di-GMP], the “switch in LapG cross-linking” value in test [1] was in the range of 0.75 to 1 µM.
For “non-fluorescent P. fluorescens LapG with pAzF at Y206 (enzyme)”, the other (LapG:LapD molar ratio) in test [2] was 0.3 and 0.5.
